Experimental data: patent publication US12077503B2, “Substituted cyclic amides and their use as herbicides” (FMC CORPORATION, priority 2015, dated 2024)

Tests used:
Assay type in all cases: in vivo
[1] = tested on: sedge, umbrella (small-flower umbrella sedge, Cyperus difformis); test: Test B flooded paddy test; details: Cyperus difformis, 250 g ai/ha, Flood; 0 to 100 scale where 0 is no effect and 100 is complete control; read-out: Sedge, Umbrella plant response rating
In short: (§1)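 Response scored visually against untreated controls, 0 = no effect and 100 = complete control, 13–15 d after treatment in the greenhouse. Compounds added to paddy water held 3 cm above soil surface. Treatment given at 2-leaf stage.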

[2] = tested on: barnyardgrass (Echinochloa crus-galli); test: Test B flooded paddy test; details: Echinochloa crus-galli, 250 g ai/ha, Flood; 0 to 100 scale where 0 is no effect and 100 is complete control; read-out: Barnyardgrass plant response rating
In short: as §1

[3] = tested on: rice (Oryra sativa); test: Test B flooded paddy test; details: Oryza sativa, 250 g ai/ha, Flood; 0 to 100 scale where 0 is no effect and 100 is complete control; read-out: Rice plant response rating
In short: as §1

[4] = tested on: ducksalad (Heteranthera limosa); test: Test B flooded paddy test; details: Heteranthera limosa, 250 g ai/ha, Flood; 0 to 100 scale where 0 is no effect and 100 is complete control; read-out: Ducksalad plant response rating
In short: as §1

[5] = tested on: ragweed (common ragweed, Ambrosia elatior); test: Test A preemergence; details: Ambrosia artemisiifolia, pre-emergence, 240 h, 0 to 100 scale where 0 is no effect and 100 is complete control, read-out: Ragweed plant response rating; for pest or weed control at 31 g/ha: 31 g ai/ha, Preemergence; for pest or weed control at 125 g/ha: 125 g ai/ha, preemergence, visual injury rating, approximately 10 d
In short: (§2)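 Visual injury scores from 0, no effect, to 100, complete control, were assigned versus untreated controls roughly 10 d after treatment in the greenhouse. Test chemicals, formulated with surfactant in a non-phytotoxic solvent, were applied to planted seeds as a preemergence soil spray or postemergence to one- to two-leaf plants 2 to 10 cm tall, in loam–sand soil.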

[6] = tested on: barnyardgrass (Echinochloa crus-galli); test: Test A preemergence; details: Echinochloa crus-galli, pre-emergence, 240 h, 0 to 100 scale where 0 is no effect and 100 is complete control, read-out: Barnyardgrass plant response rating; for pest or weed control at 31 g/ha: 31 g ai/ha, Preemergence; for pest or weed control at 125 g/ha: 125 g ai/ha, preemergence, visual injury rating, approximately 10 d
In short: as §2

[7] = tested on: pigweed (Amaranthus retroflexus); test: Test A preemergence; details: Amaranthus retroflexus, pre-emergence, 240 h, 0 to 100 scale where 0 is no effect and 100 is complete control, read-out: Pigweed plant response rating; for pest or weed control at 31 g/ha: 31 g ai/ha, Preemergence; for pest or weed control at 125 g/ha: 125 g ai/ha, preemergence, visual injury rating, approximately 10 d
[8] = tested on: ryegrass, Italian (Italian ryegrass, Lolium multiflorum); test: Test A preemergence; details: Lolium multiflorum, pre-emergence, 240 h, 0 to 100 scale where 0 is no effect and 100 is complete control, read-out: Ryegrass, Italian plant response rating; for pest or weed control at 31 g/ha: 31 g ai/ha, Preemergence; for pest or weed control at 125 g/ha: 125 g ai/ha, preemergence, visual injury rating, approximately 10 d
In short: as §2

[9] = tested on: giant foxtail (Setaria faberii); test: Test A preemergence; details: Setaria faberi, pre-emergence, 240 h, 0 to 100 scale where 0 is no effect and 100 is complete control, read-out: Foxtail, Giant plant response rating; for pest or weed control at 31 g/ha: 31 g ai/ha, Preemergence; for pest or weed control at 125 g/ha: 125 g ai/ha, preemergence, visual injury rating, approximately 10 d
In short: as §2

[10] = tested on: Kochia (Kochia scoparia); test: Test A preemergence; details: Bassia scoparia, pre-emergence, 240 h, 0 to 100 scale where 0 is no effect and 100 is complete control, read-out: Kochia plant response rating; for pest or weed control at 31 g/ha: 31 g ai/ha, Preemergence; for pest or weed control at 125 g/ha: 125 g ai/ha, preemergence, visual injury rating, approximately 10 d
In short: as §2

[11] = tested on: ragweed (common ragweed, Ambrosia elatior); test: Test A postemergence; details: Ambrosia artemisiifolia, post-emergence, 240 h, read-out: Ragweed plant response rating (0 to 100 scale); for pest or weed control at 125 g/ha: 125 g ai/ha, postemergence, visual injury vs untreated controls after approx. 10 d, 0 = no effect, 100 = complete control; for pest or weed control at 31 g/ha: Postemergence, 31 g ai/ha, 0 is no effect, 100 is complete control
In short: as §2

[12] = tested on: barnyardgrass (Echinochloa crus-galli); test: Test A postemergence; details: Echinochloa crus-galli, post-emergence, 240 h, read-out: Barnyardgrass plant response rating (0 to 100 scale); for pest or weed control at 125 g/ha: 125 g ai/ha, postemergence, visual injury vs untreated controls after approx. 10 d, 0 = no effect, 100 = complete control; for pest or weed control at 31 g/ha: Postemergence, 31 g ai/ha, 0 is no effect, 100 is complete control
In short: as §2

[13] = tested on: Galium (catchweed bedstraw, Galium aparine); test: Test A postemergence; details: Galium, post-emergence, 240 h, read-out: Galium plant response rating (0 to 100 scale); for pest or weed control at 125 g/ha: 125 g ai/ha, postemergence, visual injury vs untreated controls after approx. 10 d, 0 = no effect, 100 = complete control; for pest or weed control at 31 g/ha: Postemergence, 31 g ai/ha, 0 is no effect, 100 is complete control
In short: as §2

[14] = tested on: blackgrass (Alopecurus myosuroides); test: Test A postemergence; details: Alopecurus myosuroides, post-emergence, 240 h, read-out: Blackgrass plant response rating (0 to 100 scale); for pest or weed control at 125 g/ha: 125 g ai/ha, postemergence, visual injury vs untreated controls after approx. 10 d, 0 = no effect, 100 = complete control; for pest or weed control at 31 g/ha: Postemergence, 31 g ai/ha, 0 is no effect, 100 is complete control
In short: as §2

[15] = tested on: pigweed (Amaranthus retroflexus); test: Test A postemergence; details: Amaranthus retroflexus, post-emergence, 240 h, read-out: Pigweed plant response rating (0 to 100 scale); for pest or weed control at 125 g/ha: 125 g ai/ha, postemergence, visual injury vs untreated controls after approx. 10 d, 0 = no effect, 100 = complete control; for pest or weed control at 31 g/ha: Postemergence, 31 g ai/ha, 0 is no effect, 100 is complete control
In short: as §2

[16] = tested on: ryegrass, Italian (Italian ryegrass, Lolium multiflorum); test: Test A postemergence; details: Lolium multiflorum, post-emergence, 240 h, read-out: Ryegrass, Italian plant response rating (0 to 100 scale); for pest or weed control at 125 g/ha: 125 g ai/ha, postemergence, visual injury vs untreated controls after approx. 10 d, 0 = no effect, 100 = complete control; for pest or weed control at 31 g/ha: Postemergence, 31 g ai/ha, 0 is no effect, 100 is complete control
In short: as §2

[17] = tested on: corn (Zea mays); test: Test A postemergence; details: Zea mays, post-emergence, 240 h, read-out: Corn plant response rating (0 to 100 scale); for plant injury at 125 g/ha: 125 g ai/ha, postemergence, visual injury vs untreated controls after approx. 10 d, 0 = no effect, 100 = complete control; for plant injury at 31 g/ha: Postemergence, 31 g ai/ha, 0 is no effect, 100 is complete control
In short: as §2

[18] = tested on: wheat (Triticum aestivum); test: Test A postemergence; details: Triticum aestivum, post-emergence, 240 h, Postemergence, 31 g ai/ha; 0 is no effect, 100 is complete control; read-out: Wheat plant response rating (0 to 100 scale)
In short: as §2

[19] = tested on: giant foxtail (Setaria faberii); test: Test A postemergence; details: Setaria faberi, post-emergence, 240 h, read-out: Foxtail, Giant plant response rating (0 to 100 scale); for pest or weed control at 125 g/ha: 125 g ai/ha, postemergence, visual injury vs untreated controls after approx. 10 d, 0 = no effect, 100 = complete control; for pest or weed control at 31 g/ha: Postemergence, 31 g ai/ha, 0 is no effect, 100 is complete control
In short: as §2

[20] = tested on: Kochia (Kochia scoparia); test: Test A postemergence; details: Bassia scoparia, post-emergence, 240 h, read-out: Kochia plant response rating (0 to 100 scale); for pest or weed control at 125 g/ha: 125 g ai/ha, postemergence, visual injury vs untreated controls after approx. 10 d, 0 = no effect, 100 = complete control; for pest or weed control at 31 g/ha: Postemergence, 31 g ai/ha, 0 is no effect, 100 is complete control
In short: as §2

Compound: CN1C[C@H](c2ccc(F)c(Oc3ccccc3)c2)[C@@H](C(=O)Nc2cccc(F)c2F)C1=O [Compound 1259]
- pest or weed control at 250 g/ha [1]: 0%
- pest or weed control at 250 g/ha [2]: 0%
- pest or weed control at 250 g/ha [3]: 0%
- pest or weed control at 250 g/ha [4]: 0%
- pest or weed control at 31 g/ha [5]: 0%
- pest or weed control at 125 g/ha [5]: 0%
- pest or weed control at 31 g/ha [6]: 0%
- pest or weed control at 125 g/ha [6]: 60%
- pest or weed control at 31 g/ha [7]: 30%
- pest or weed control at 125 g/ha [7]: 30%
- pest or weed control at 31 g/ha [8]: 0%
- pest or weed control at 125 g/ha [8]: 30%
- pest or weed control at 31 g/ha [9]: 40%
- pest or weed control at 125 g/ha [9]: 90%
- pest or weed control at 31 g/ha [10]: 0%
- pest or weed control at 125 g/ha [10]: 0%
- pest or weed control at 125 g/ha [11]: 0%
- pest or weed control at 31 g/ha [11]: 0%
- pest or weed control at 125 g/ha [12]: 80%
- pest or weed control at 31 g/ha [12]: 30%
- pest or weed control at 125 g/ha [13]: 80%
- pest or weed control at 31 g/ha [13]: 60%
- pest or weed control at 125 g/ha [14]: 0%
- pest or weed control at 31 g/ha [14]: 0%
- pest or weed control at 125 g/ha [15]: 60%
- pest or weed control at 31 g/ha [15]: 40%
- pest or weed control at 125 g/ha [16]: 0%
- pest or weed control at 31 g/ha [16]: 0%
- plant injury at 125 g/ha [17]: 70%
- plant injury at 31 g/ha [17]: 0%
- plant injury at 31 g/ha [18]: 0%
- pest or weed control at 125 g/ha [19]: 70%
- pest or weed control at 31 g/ha [19]: 30%
- pest or weed control at 125 g/ha [20]: 0%
- pest or weed control at 31 g/ha [20]: 0%

Compound: Cc1c(F)cccc1NC(=O)[C@H]1C(=O)N(C)C[C@@H]1c1ccc(C(F)F)cc1 [Compound 1261]
- pest or weed control at 250 g/ha [1]: 0%
- pest or weed control at 250 g/ha [2]: 75%
- pest or weed control at 250 g/ha [3]: 50%
- pest or weed control at 250 g/ha [4]: 100%
- pest or weed control at 31 g/ha [5]: 50%
- pest or weed control at 125 g/ha [5]: 50%
- pest or weed control at 31 g/ha [6]: 90%
- pest or weed control at 125 g/ha [6]: 90%
- pest or weed control at 31 g/ha [7]: 0%
- pest or weed control at 125 g/ha [7]: 20%
- pest or weed control at 31 g/ha [8]: 20%
- pest or weed control at 125 g/ha [8]: 30%
- pest or weed control at 31 g/ha [9]: 90%
- pest or weed control at 125 g/ha [9]: 90%
- pest or weed control at 31 g/ha [10]: 70%
- pest or weed control at 125 g/ha [10]: 80%
- pest or weed control at 125 g/ha [11]: 30%
- pest or weed control at 31 g/ha [11]: 0%
- pest or weed control at 125 g/ha [12]: 90%
- pest or weed control at 31 g/ha [12]: 90%
- pest or weed control at 125 g/ha [13]: 60%
- pest or weed control at 31 g/ha [13]: 50%
- pest or weed control at 125 g/ha [14]: 60%
- pest or weed control at 31 g/ha [14]: 40%
- pest or weed control at 125 g/ha [15]: 30%
- pest or weed control at 31 g/ha [15]: 0%
- pest or weed control at 125 g/ha [16]: 50%
- pest or weed control at 31 g/ha [16]: 20%
- plant injury at 125 g/ha [17]: 80%
- plant injury at 31 g/ha [17]: 50%
- plant injury at 31 g/ha [18]: 20%
- pest or weed control at 125 g/ha [19]: 90%
- pest or weed control at 31 g/ha [19]: 90%
- pest or weed control at 125 g/ha [20]: 50%
- pest or weed control at 31 g/ha [20]: 20%
